According to patent US20230234942A1, “COMPOUNDS FOR TREATING HUNTINGTON'S DISEASE” (PTC Therapeutics, Inc., priority 2020, published 2023):

Test system: Endogenous Huntingtin Protein
Test: Endogenous Huntingtin Protein Assay (ELISA-based MSD electrochemiluminescence)
Type: cell-based
Conditions: Table 2; MSD plates coated with MW1 (expanded polyglutamine) or MAB2166 capture antibody; "inactive" = result above the detection limit of the assay
How it was run: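 Endogenous huntingtin measured on MSD plates coated with MW1 (polyglutamine-expanded) or MAB2166 capture antibody; lysates bound overnight at 4 °C. Signal developed with #56565 rabbit monoclonal and goat anti-rabbit SULFO-TAG (0.25 µg/mL, 1 h RT each), electrochemiluminescence read on SI 6000.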

| IC50 [nM] | SMILES |
| --- | --- |
| 63.7 | [2H]C([2H])([2H])n1cc(-c2ccc(-c3cnc(N4CCNC(CC)C4)nn3)c(O)c2)cn1 (stereo not drawn) [Cpd 39, 2-[3-(3-ethylpiperazin-1-yl)-1,2,4-triazin-6-yl]-5-[1-(^2H3)methyl-1H-pyrazol-4-yl]phenol] |
| 2.1 | CC1CN(c2ncc(-c3ccc(-c4cc(F)c5nn(C)cc5c4)cc3O)nn2)CCN1 (stereo not drawn) [Cpd 67, 5-(7-fluoro-2-methyl-2H-indazol-5-yl)-2-[3-(3-methylpiperazin-1-yl)-1,2,4-triazin-6-yl]phenol] |
| 131 | CC(C)[C@H]1CN(c2ncc(-c3ccc(-c4cnn5c4OCCC5)cc3O)nn2)CCN1 [Cpd 282, 5-(6,7-dihydro-5H-pyrazolo[5,1-b][1,3]oxazin-3-yl)-2-{3-[(3S)-3-(propan-2-yl)piperazin-1-yl]-1,2,4-triazin-6-yl}phenol] |
| 975 | Oc1cc(-c2cc(N3CCC3)ncn2)ccc1-c1cnc(N2CCNC(C3CC3)C2)nn1 (racemic) [Cpd 210, 5-[6-(azetidin-1-yl)pyrimidin-4-yl]-2-{3-[(3RS)-3-cyclopropylpiperazin-1-yl]-1,2,4-triazin-6-yl}phenol] |
| 16.8 | Cc1cn2cc(-c3ccc(-c4cnc(N5CCN(C)[C@H](C)C5)nn4)c(O)c3)cc(F)c2n1 [Cpd 107, 2-{3-[(3R)-3,4-dimethylpiperazin-1-yl]-1,2,4-triazin-6-yl}-5-(8-fluoro-2-methylimidazo[1,2-a]pyridin-6-yl)phenol] |
| 42 | CC(C)C1CN(c2ncc(-c3ccc(-c4cn[nH]c4)cc3O)nn2)CCN1C (stereo not drawn) [Cpd 34, 2-{3-[4-methyl-3-(propan-2-yl)piperazin-1-yl]-1,2,4-triazin-6-yl}-5-(1H-pyrazol-4-yl)phenol] |
| 668 | Oc1cc(-c2c[nH]nc2F)ccc1-c1cnc(N2CCNC3(CC3)C2)nn1 [Cpd 57, 2-[3-(4,7-diazaspiro[2.5]octan-7-yl)-1,2,4-triazin-6-yl]-5-(3-fluoro-1H-pyrazol-4-yl)phenol] |
| 14.9 | CC1(C2CN(c3ncc(-c4ccc(-c5cn[nH]c5)cc4O)nn3)CCN2)CC1 (stereo not drawn) [Cpd 134, 2-{3-[3-(1-methylcyclopropyl)piperazin-1-yl]-1,2,4-triazin-6-yl}-5-(1H-pyrazol-4-yl)phenol] |
| 609 | CN1CCN(c2ncc(-c3ncc(-c4cn[nH]c4)cc3O)nn2)CC1 [Cpd 124, 2-[3-(4-methylpiperazin-1-yl)-1,2,4-triazin-6-yl]-5-(1H-pyrazol-4-yl)pyridin-3-ol] |
| 9.5 | C[C@@H]1CN(c2ncc(-c3ccc(-c4c[nH]nc4F)cc3O)nn2)C[C@H](C2CCC2)N1 [Cpd 236, 2-{3-[(3S,5R)-3-cyclobutyl-5-methylpiperazin-1-yl]-1,2,4-triazin-6-yl}-5-(3-fluoro-1H-pyrazol-4-yl)phenol] |
| 14.2 | Cc1nc2cnc(-c3ccc(-c4cnc(N5C[C@@H](C)N[C@@H](C)C5)nn4)c(O)c3)cn2n1 [Cpd 167, 2-{3-[(3R,5S)-3,5-dimethylpiperazin-1-yl]-1,2,4-triazin-6-yl}-5-(2-methyl[1,2,4]triazolo[1,5-a]pyrazin-6-yl)phenol] |
| 8.1 | COc1cc(-c2ccc(-c3cnc(N4C[C@@H](C)N[C@@H](C5CC5)C4)nn3)c(O)c2)ncn1 [Cpd 235, 2-{3-[(3S,5R)-3-cyclopropyl-5-methylpiperazin-1-yl]-1,2,4-triazin-6-yl}-5-(6-methoxypyrimidin-4-yl)phenol] |
| 142 | OC[C@@H]1CN(c2ncc(-c3ccc(-n4nccn4)cc3O)nn2)CCN1 [Cpd 45, 2-{3-[(3S)-3-(hydroxymethyl)piperazin-1-yl]-1,2,4-triazin-6-yl}-5-(2H-1,2,3-triazol-2-yl)phenol] |
| 6.7 | Oc1cc(-c2cn[nH]c2)ccc1-c1cnc(N2CCNC(C3(O)CC3)C2)nn1 (stereo not drawn) [Cpd 6, 2-{3-[3-(1-hydroxycyclopropyl)piperazin-1-yl]-1,2,4-triazin-6-yl}-5-(1H-pyrazol-4-yl)phenol] |
| 16.5 | Cc1nc2cnc(-c3ccc(-c4cnc(N5C[C@@H](C)N[C@@H](C)C5)nn4)c(O)c3)cn2n1 [Cpd 106, 2-{3-[(3R,5S)-3,5-dimethylpiperazin-1-yl]-1,2,4-triazin-6-yl}-5-(2-methyl[1,2,4]triazolo[1,5-a]pyrazin-6-yl)phenol] |
| 654 | CC1(C)CN(c2ncc(-c3ccc(-c4cn[nH]c4)cc3O)nn2)CCN1 [Cpd 56, 2-[3-(3,3-dimethylpiperazin-1-yl)-1,2,4-triazin-6-yl]-5-(1H-pyrazol-4-yl)phenol] |
| 140 | CC(C)[C@H]1CN(c2ncc(-c3ccc(-c4cnsc4)cc3O)nn2)CCN1 [Cpd 250, 2-{3-[(3S)-3-(propan-2-yl)piperazin-1-yl]-1,2,4-triazin-6-yl]-5-(1,2-thiazol-4-yl)phenol] |
| 678 | Cc1cc2nc(-c3ccc(-c4cnc(N5C[C@@H](C)N[C@@H](C)C5)nn4)c(O)c3)sc2c(C)n1 [Cpd 116, 2-{3-[(3R,5S)-3,5-dimethylpiperazin-1-yl]-1,2,4-triazin-6-yl}-5-(4,6-dimethyl[1,3]thiazolo[5,4-c]pyridin-2-yl)phenol] |

| IC50 [nM] | SMILES |
| --- | --- |
| 18.7 | CC(C)[C@H]1CN(c2ncc(-c3ccc(-n4nccn4)cc3O)nn2)CCN1 [Cpd 154, 2-{3-[(3S)-3-(propan-2-yl)piperazin-1-yl]-1,2,4-triazin-6-yl}-5-(2H-1,2,3-triazol-2-yl)phenol] |
| 10.9 | Cc1nc2ccc(-c3ccc(-c4cnc(N5C[C@@H](C)N[C@@H](C)C5)nn4)c(O)c3)nn2n1 [Cpd 100, 2-{3-[(3R,5S)-3,5-dimethylpiperazin-1-yl]-1,2,4-triazin-6-yl}-5-(2-methyl[1,2,4]triazolo[1,5-b]pyridazin-6-yl)phenol] |
| 14.6 | Cc1cn2nc(-c3ccc(-c4cnc(N5CCN(C)CC5)nn4)c(O)c3)cc(C)c2n1 [Cpd 104, 5-(2,8-dimethylimidazo[1,2-b]pyridazin-6-yl)-2-[3-(4-methylpiperazin-1-yl)-1,2,4-triazin-6-yl]phenol] |
| 7 | CC[C@H]1CN(c2ncc(-c3ccc(-c4cn[nH]c4F)cc3O)nn2)C[C@@H](C)N1 [Cpd 223, 2-{3-[(3S,5R)-3-ethyl-5-methylpiperazin-1-yl]-1,2,4-triazin-6-yl]-5-(5-fluoro-1H-pyrazol-4-yl)phenol] |
| 292 | CC(C)[C@H]1CN(c2ncc(-c3ccc(-c4cnsn4)cc3O)nn2)CCN1 [Cpd 265, 2-{3-[(3S)-3-(propan-2-yl)piperazin-1-yl]-1,2,4-triazin-6-yl}-5-(1,2,5-thiadiazol-3-yl)phenol] |
| 3.7 | Cn1nc2ccc(-c3ccc(-c4cnc(N5CCN[C@@H](C6CC6)C5)nn4)c(O)c3)nc2n1 [Cpd 202, 2-{3-[(3S)-3-cyclopropylpiperazin-1-yl]-1,2,4-triazin-6-yl}-5-(2-methyl-2H-[1,2,3]triazolo[4,5-b]pyridin-5-yl)phenol] |
| 11.2 | CC[C@H]1CN(c2ncc(-c3ccc(-c4c[nH]nc4F)cc3O)nn2)CCN1 [Cpd 123, 2-{3-[(3S)-3-ethylpiperazin-1-yl]-1,2,4-triazin-6-yl}-5-(3-fluoro-1H-pyrazol-4-yl)phenol] |
| 9.8 | C[C@@H]1CN(c2ncc(-c3ccc(-c4cnc5nn(C)cc5c4)cc3O)nn2)C[C@H](C)N1 [Cpd 97, 2-{3-[(3R,5S)-3,5-dimethylpiperazin-1-yl]-1,2,4-triazin-6-yl}-5-(2-methyl-2H-pyrazolo[3,4-b]pyridin-5-yl)phenol] |
| 9.4 | CC(C)[C@H]1CN(c2ncc(-c3ccc(-c4cn[nH]c4F)cc3O)nn2)C[C@@H](C)N1 [Cpd 222, 5-(5-fluoro-1H-pyrazol-4-yl)-2-{3-[(3R,5S)-3-methyl-5-(propan-2-yl)piperazin-1-yl]-1,2,4-triazin-6-yl]phenol] |
| 12.5 | C[C@@H]1CN(c2ncc(-c3ccc(-c4cc5nn(C)nc5cn4)cc3O)nn2)C[C@H](C)N1 [Cpd 198, 2-{3-[(3R,5S)-3,5-dimethylpiperazin-1-yl]-1,2,4-triazin-6-yl}-5-(2-methyl-2H-[1,2,3]triazolo[4,5-c]pyridin-6-yl)phenol] |
| 34.3 | CCCC1CN(c2ncc(-c3ccc(-c4cn[nH]c4)cc3O)nn2)CCN1 (stereo not drawn) [Cpd 31, 2-[3-(3-propylpiperazin-1-yl)-1,2,4-triazin-6-yl]-5-(1H-pyrazol-4-yl)phenol] |
| 4.3 | C[C@@H]1CN(c2ncc(-c3ccc(-c4cc(F)c5nn(C)cc5c4)cc3O)nn2)C[C@@H](C)N1 [Cpd 76, 2-{3-[(3R,5R)-3,5-dimethylpiperazin-1-yl]-1,2,4-triazin-6-yl}-5-(7-fluoro-2-methyl-2H-indazol-5-yl)phenol] |
| 114 | C[C@H]1CN(c2ncc(-c3ccc(-c4cn[nH]c4F)cc3O)nn2)C[C@@H](C2CC2)N1 [Cpd 215, 2-{3-[(3R,5S)-3-cyclopropyl-5-methylpiperazin-1-yl]-1,2,4-triazin-6-yl}-5-(5-fluoro-1H-pyrazol-4-yl)phenol] |
| 33.3 | Oc1cc(-c2cn[nH]c2)ccc1-c1cnc(N2CCNC(C3CCC3)C2)nn1 (stereo not drawn) [Cpd 30, 2-[3-(3-cyclobutylpiperazin-1-yl)-1,2,4-triazin-6-yl]-5-(1H-pyrazol-4-yl)phenol] |
| 73.8 | CC[C@@H]1CN(c2ncc(-c3ccc(-c4cn[nH]c4F)cc3O)nn2)C[C@H](C)N1 [Cpd 218, 2-{3-[(3R,5S)-3-ethyl-5-methylpiperazin-1-yl]-1,2,4-triazin-6-yl}-5-(5-fluoro-1H-pyrazol-4-yl)phenol] |
| 3.3 | CC(C)[C@H]1CN(c2ncc(-c3ccc(-c4cnc5nn(C)nc5c4)cc3O)nn2)CCN1 [Cpd 212, 5-(2-methyl-2H-[1,2,3]triazolo[4,5-b]pyridin-6-yl)-2-{3-[(3S)-3-(propan-2-yl)piperazin-1-yl]-1,2,4-triazin-6-yl}phenol] |
| 204 | CC(C)[C@H]1CN(c2ncc(-c3ccc(-c4ncccn4)cc3O)nn2)CCN1 [Cpd 151, 2-{3-[(3S)-3-(propan-2-yl)piperazin-1-yl]-1,2,4-triazin-6-yl}-5-(pyrimidin-2-yl)phenol] |
| 53.4 | CC[C@H]1CN(c2ncc(-c3ccc(-c4cn[nH]c4)cc3O)nn2)C[C@@H](C)N1 (racemic) [Cpd 148, 2-{3-[rac-(3S,5R)-3-ethyl-5-methylpiperazin-1-yl]-1,2,4-triazin-6-yl}-5-(1H-pyrazol-4-yl)phenol] |
